According to patent US20110206720A1, “ANTI-INFLAMMATORY USAGE OF ANTRODIA CINNAMOMEA FRUIT BODY DERIVATIVES” (Taiwan Leader Biotech Corp, priority 2010, published 2011):

Legend:
Assay type in all cases: cell-based, mice
macrophage RAW 267.4 [1] = test: LPS-elicited prostaglandin-E2 (PGE2) production in macrophage RAW 267.4, ELISA; parameters: unit not given here; conditions: RAW 267.4, aspirin 3 hours, then LPS 1 g/ml 16 hours
Protocol: (§1) The invention chooses the macrophage RAW 267.4 of mice for the discussion about the production of NO and prostaglandin-E2 (PGE2). For the culture of RAW 267.4 cell, firstly inoculate RAW 267.4 macrophages growing in the culture plate (75 cm^2) in 96-well plate in the density of 2×10^5 cells/well and then culture them in the incubator (37° C., 5% CO2). DMEM culture medium is selected according to the recommendation of ATCC (American TypeCulture Collection), with 10% fetal bovine serum (FBS), penicillin (100 units/ml) and streptomycin ([…]) added.
In the experiment for measuring the production of prostaglandin-E2 (PGE2), firstly RAW 267.4 cells are cultured as Experiment I states and […] aspirin is added in the culture medium for 3 hours so that the endogenous COX-1 is deactivated. Then, they are handled for 1 hour in antrocamphin A (1, 5, 10, 20 g/ml) or curcumin (10 g/ml) and processed for 16 hours with LPS (1 g/ml). Finally, supernatant liquid in the cell culture is measured by ELISA kit (Cayman Chemicals) so as to get the production of prostaglandin-E2 (PGE2) in endogenous arachidonic acid.

macrophage RAW 267.4 [2] = test: MTT test of toxicity to cells (cell survival rate)
Protocol: The invention chooses the macrophage RAW 267.4 of mice for the discussion about the production of NO and prostaglandin-E2 (PGE2). For the culture of RAW 267.4 cell, firstly inoculate RAW 267.4 macrophages growing in the culture plate (75 cm^2) in 96-well plate in the density of 2×10^5 cells/well and then culture them in the incubator (37° C., 5% CO2). DMEM culture medium is selected according to the recommendation of ATCC (American TypeCulture Collection), with 10% fetal bovine serum (FBS), penicillin (100 units/ml) and streptomycin ([…]) added. In addition, the familiar MTT is utilized to test the toxicity of Antrocamphin A to cells. Said MTT is a method for detecting cell survival rate or cell proliferation in biology on principle that succinate dehydrogenase in the mitochondria of live cell metabolizes tetrazolium of MTT to be blue products. After DMSO is added to resolve the blue metabolized products accumulated in cells, the amount of blue metabolized products is measured by spectrometer to indirectly calculate the number of live cells.

macrophage RAW 267.4 [3] = test: LPS-elicited NO production in macrophage RAW 267.4, nitrite by Griess reaction; parameters: unit not given here; conditions: then LPS 1 g/ml 24 hours
Protocol: as §1
Firstly, RAW 267.4 is cultured as detailed in Experiment I and divided into three groups: group 1 (ACE), group 2 (ACE-EA) and group 3 (ACE-water). For each group, add said ACE, ACE-EA and ACE-water of different concentrations (1, 10, 25, 50 g/ml) in the culture medium, add LPS to elicit RAW267.4 producing NO, and measure the content of nitrite after 24 hours by Griess reaction to indirectly measure the amount of NO.
NO activity inhibition tests are conducted on RAW 267.4 macrophages (see reference in Cell culture, Experiment I) to 17 fractions respectively. Firstly, divide RAW 267.4 cells into 17 groups, add 17 fractions (50 g/ml) in the culture medium, and then add LPS (1 g/ml) to elicit the production of NO. 24 hours later, Griess reaction is conducted to measure the content of nitrites and thus indirectly measuring the production of NO and calculating the inhibition rate of NO.
In the experiment of production of NO, firstly RAW 267.4 cells are cultured as Experiment I states, handled for 1 hour in antrocamphin A (1, 5, 10, 20 g/ml) or curcumin (10 g/ml), and then processed for 24 hours with LPS (1 g/ml). Then, Griess reaction is conducted to measure the content of nitrites and thus indirectly obtaining the production of NO.

mRNA of iNOS = test: iNOS mRNA expression in LPS-treated RAW 267.4, RT-PCR; conditions: RAW 267.4, LPS; dose-dependent, higher dose; FIG. 4A
Protocol: (§2) Trizol reagent (Invitrogen Life Technologies, Carlsbad, Calif., USA) is used to extract the total RNA of macrophages. mRNA of iNOS, COX-2 and G3PDH is reversely transcribed to be cDNA by the RT-PCR, and then the expression of iNOS, COX-2 and G3PDH are quantified with the real time-PCR (Applied Biosystems).
(§3) Said real time-PCR detects the PCR products by DNA binding SYBR Green. The thermal cycles are: 95° C., 5 min, 1 min for 40 cycles at 95° C., 45 s for 55° C., and 30 s for 72° C. The sequence of primers is: iNOS forward 5′-TCC TAC ACC ACA CCA AAC-3′; iNOS reverse 5′-CTC CAA TCT CTG CCT ATC C-3′; COX-2 forward 5′-CCT CTG CGA TGC TCT TCC-3′, COX-2 reverse 5′-TCACACTTATACTGGTCAAATCC-3′, G3PDH forward 5′-TCA ACG GCA CAG TCA AGG-3′; G3PDH reverse 5′-ACT CCA CGA CAT ACT CAG C-3′. G3PDH are housekeeping genes which are genes with stable and large number of expression in cells and are used to standardize the expression of iNOS and COX-2 in the experiment.
(§4) In addition, total RNA and total protein are extracted from each group of macrophages. According to the paragraphs of RT-PCR and western blot analysis in Experiment I, the expression of iNOS and COX-2 are evaluated from the perspectives of mRNA and protein.

mRNA of COX-2 = test: COX-2 mRNA expression in LPS-treated RAW 267.4, RT-PCR; conditions: RAW 267.4, LPS; dose-dependent, higher dose; FIG. 4B
Protocol: as §2, §3, §4

iNOS = iNOS protein expression in LPS-treated RAW 267.4, western blot; conditions: RAW 267.4, LPS; dose-dependent, especially at […]; FIG. 5A
Protocol: (§5) After getting the total protein of macrophages, add the equal amount of protein in 5˜7% SDS-PAGE, resolve for 90 m at 300 mA, blotting (100V, 1 hour) proteins resolved in different sizes to polyvinylidene difluoride (PVDF, Immobilon, Millipore, Bedford, Mass.), and then put PVDF in the blocking buffer (10% w/v skim milk powder in TBST) for 1 hour.
(§6) Then, dip PVDF in the anti-iNOS solution (1:1000, Cayman Chemicals) and clean twice with 0.1% TBST buffer (TBS buffer containing 0.1% Tween 20) to clear the non-specific bonded antibody and antigen.
(§7) Next, dip PVDF in the anti-rabbit secondary antibodies solution with horseradish peroxidase, detect the fluorescence density of each group by enhanced chemiluminescene regents (ECL, Pierce), and take the expression of β-actin as the reference group.
as §4

COX-2 = COX-2 protein expression in LPS-treated RAW 267.4, western blot; conditions: RAW 267.4, LPS; dose-dependent, especially at 20 µg/ml; FIG. 5B
Protocol: as §5, §6, §7, §4

Compound	Production of prostaglandin-E2 (PGE2) (macrophage RAW 267.4 [1]; 10 g/ml for 1 hour)	Cell survival rate (%) (macrophage RAW 267.4 [2]; mouse, 10 g/ml)	Production of NO (M) (macrophage RAW 267.4 [3]; RAW 267.4, 1 g/ml for 1 hour)	Production of NO (M) (macrophage RAW 267.4 [3]; RAW 267.4, 5 g/ml for 1 hour)	Production of NO (M) (macrophage RAW 267.4 [3]; RAW 267.4, 10 g/ml for 1 hour)	Production of NO (M) (macrophage RAW 267.4 [3]; RAW 267.4, 20 g/ml for 1 hour)	Production of prostaglandin-E2 (PGE2) (macrophage RAW 267.4 [1]; 1 g/ml for 1 hour)	Production of prostaglandin-E2 (PGE2) (macrophage RAW 267.4 [1]; 5 g/ml for 1 hour)	Production of prostaglandin-E2 (PGE2) (macrophage RAW 267.4 [1]; 20 g/ml for 1 hour)	Cell survival rate (%) (macrophage RAW 267.4 [2]; MTT, RAW 267.4, 1 g/ml, with LPS)	Cell survival rate (%) (macrophage RAW 267.4 [2]; MTT, RAW 267.4, 5 g/ml, with LPS)	Cell survival rate (%) (macrophage RAW 267.4 [2]; MTT, RAW 267.4, 10 g/ml, with LPS)	Cell survival rate (%) (macrophage RAW 267.4 [2]; MTT, RAW 267.4, 20 g/ml, with LPS)	expression of mRNA of iNOS (mRNA of iNOS)	expression of mRNA of COX-2 (mRNA of COX-2)	expression of iNOS (protein) (iNOS)	expression of COX-2 (protein) (COX-2)
COc1cc(/C=C/C(=O)CC(=O)/C=C/c2ccc(O)c(OC)c2)ccc1O [curcumin, reference compound]	6.82 ± 5.2	76 ± 4.6%															
C=C(C)C#Cc1c(OC)cc(OC)c(OC)c1C [antrocamphin A, Antrocamphin A]	237.96 ± 83.85		18 ± 0.36	14.68 ± 0.54	11.14 ± 0.18	7.27 ± 0.18	411.5 ± 20.92	360.9 ± 23.95	24.62 ± 15.36	93 ± 4.13%	92 ± 5.49%	89 ± 3.22%	79 ± 3.54%	effectively reduce the amount of mRNA of iNOS and COX-2	effectively reduce the amount of mRNA of iNOS and COX-2	effectively reduce the expression of iNOS and COX-2	effectively reduce the expression of iNOS and COX-2
